From patent publication US7247734B2 (Vernalis (Cambridge) Limited, priority 2001, dated 2007)

Experiments:
[1] = test system: HT29 human colon tumour cells; experiment: 96 h growth inhibition assay (SRB), HT29; type: cell-based; details: Homo sapiens, HT-29; HT29, 96 h
Method: The growth inhibition assay employed was based on that described previously (Kelland et al., 1993). HCT116 and HT29 human colon tumour cells (American Tissue Culture Collection) were seeded into 96-well tissue culture plates (approximately 1600–2000 cells per well) and allowed to attach for 36 hours. Eight wells were treated with a single concentration from a range of compound concentrations and incubated for 96 hours. Cells were fixed using ice cold 10% trichloroacetic acid (TCA). Plates were then washed five times with water, air dried, and stained with 0.4% sulphorhodamine B (SRB) in 1% acetic acid for 10 minutes. The SRB stain was solubilised in 10 mM Tris-HCl and the absorbance measured at 540 nm using a Titertek Multiscan MCC/340 MKII plate reader (Flow Laboratories, IEC, Basingstoke, N.H.). The absorbance values correspond to total protein content and are used as a measure of cell growth.

HSP70 in HCT116 cells = experiment: Cell-based ELISA for HSP70 expression; parameters: species or system human; details: for % increase in HSP70 (Normalised Europium Counts compared to DMSO controls): HCT116, 10 μM compound
From the text: Cell-based ELISA methods (see, e.g., Stockwell et al., 1999; Versteeg et al., 2000) offer several advantages for evaluating the pharmacodynamic effects of novel mechanism-based inhibitors and may be the method of choice for comparing inhibitors that are identified during the iterative process of lead identification and optimisation. The technique can be used to rapidly rank the effectiveness of compounds as well as to investigate the molecular mechanisms of their action. The increased sample throughput possible with ELISA means that compounds can be simultaneously studied in multiple replicates at different doses and exposure times. […] The assays are carried out directly on cells grown and treated in microtitre plates, thereby removing the necessity for preparing cell lysates. ELISA techniques can in theory be applied to any cellular protein or post-translational modification for which an antibody is available and results are at least semi-quantitative.
Chemicals are of the highest purity commercially available. • (1) Human colon tumour cell lines (e.g., HCT116 and HT29 from American Tissue Culture Collection, ATCC) grown in Dulbecco's modified Eagle's medium (DMEM) (CSSD, Institute of Cancer Research, London, UK) supplemented with […] glucose, 10% foetal bovine serum (FBS), 200 mM L-glutamine, and 5 ml non-essential amino acids in a humidified atmosphere of 5% CO2 at 37° C. • (2) 96 well Falcon clear microtitre tissue culture plates (BD Labware, Hospital Management and Supplies, Ltd., Northampton, UK). • (3) DMSO diluted in dH2O (8%). • (4) HSP90 inhibitors at required concentration dissolved in DMSO. • (5) Fixing solution (0.25% glutaraldehyde, 3% paraformaldehyde and 0.25% Triton-X 100) (all from Sigma Aldrich Ltd, Poole, UK). • (6) Blocking solution (5% dried milk (Marvel) in PBS) prepared daily. • (7) Anti HSP70 monoclonal antibody (SPA 810, Bioquote, York, UK). • (8) DELFIA® wash buffer, enhancement solution, assay buffer and Europium labelled anti-mouse IgG (1244–1330) (PerkinElmer Life Sciences, Milton Keynes, UK). • (9) BCA protein assay reagents (Perbio Science UK Ltd., Chester, UK). Method
Incubate at 37° for 30 min. • (6) Wash plates twice in PBS using an automated washer (Wellwash 5000 ten plate stacker-washer or Wellwash Ascent single plate washer, Thermo Labsystems, Basingstoke, UK). • (7) Block the plates by addition of blocking solution (100 μl) and incubate for 30 min. • (8) Add 100 μl primary antibody diluted to 0.95 μg/ml in PBS to each well and incubate plate for 1.5 h. Wash plates once with DELFIA® wash solution. • (9) Add 100 μl Europium labelled anti-mouse IgG diluted in DELFIA® assay buffer to 75 ng/ml and incubate for 1 hour. Wash plates once with DELFIA® wash solution as before. • (10) Add 100 μl DELFIA® enhancement solution to each well. • (11) Measure the fluorescence (615 nm) in Victor 2 1420 multilabel counter (Perkin Elmer Life Sciences, Milton Keynes, UK) using time-resolved measurement mode. • (12) Wash plates once with PBS and measure protein concentration by the addition of 200 μl BCA reagent to each well, shake for 1–2 min and incubate for 30 mins at 37° C. Read absorption at 570 nm. • (13) Express ELISA results by normalising to protein in the well (Eu counts (cpm) divided by OD@ 570 nm). Compare the effect of HSP90 inhibitors on HSP70 expression with DMSO treated controls. Comments • (1) Cells plated into 96 well plates are incubated in a plastic box to reduce evaporation from the outside wells. […]

SMILES | IC50 [1] | % increase in HSP70 (Normalised Europium Counts compared to DMSO controls) (HSP70 in HCT116 cells; (48 h)) | % increase in HSP70 (Normalised Europium Counts compared to DMSO controls) (HSP70 in HCT116 cells; (time not given)) | HSP70 induction (HSP70 in HCT116 cells; HCT116, 10 μM, 48 h)
Cc1[nH]nc(-c2ccc(O)cc2O)c1-c1ccc2c(c1)OCCO2 [CCT018157] | 14 µM | 103% | 105% | 
CCc1cc(-c2n[nH]c(C)c2-c2ccc3c(c2)OCCO3)c(O)cc1O [CCT018159, 4-[4-(2,3-Dihydro-benzo[1,4]dioxin-6-yl)-5-methyl-1H-pyrazol-3-yl]-6-ethyl-benzene-1,3-diol] | 13.5 µM | 278% | 158% | up to 2.8 fold
